# PMC7594077, “An Alcohol Dehydrogenase 3 (ADH3) from Entamoeba histolytica Is Involved in the Detoxification of Toxic Aldehydes” (Microorganisms, 2020)
# What was measured:
# [1] = biological target: recombinant EhADH3B^b (alcohol dehydrogenase 3B of Entamoeba histolytica) (Entamoeba histolytica); assay: SEC; HiLoad 16/60 Superdex prep grade column; 50 mM Tris, 150 mM NaCl, 10 mM EDTA, 1 mM DTT, 10% glycerol, pH 8.0; elution peak at 82 mL compared with standard proteins
# recEhADH3B^b = biological target: T1, recEhADH3B^b (Entamoeba histolytica, UniProt C4M6R1); assay: NADPH oxidation at […] nm, Michaelis-Menten; format: biochemical; details: 0.7 mM NADPH, pH 7.4, EDTA-treated and dialysed enzyme incubated with 1 mM Ni2+; reduction direction
# T1 construct: gene EHI_088020; E. coli BL21(DE3); dimer; EDTA-stripped and reloaded with Ni2+
# T1 sequence (C4M6R1 1-382): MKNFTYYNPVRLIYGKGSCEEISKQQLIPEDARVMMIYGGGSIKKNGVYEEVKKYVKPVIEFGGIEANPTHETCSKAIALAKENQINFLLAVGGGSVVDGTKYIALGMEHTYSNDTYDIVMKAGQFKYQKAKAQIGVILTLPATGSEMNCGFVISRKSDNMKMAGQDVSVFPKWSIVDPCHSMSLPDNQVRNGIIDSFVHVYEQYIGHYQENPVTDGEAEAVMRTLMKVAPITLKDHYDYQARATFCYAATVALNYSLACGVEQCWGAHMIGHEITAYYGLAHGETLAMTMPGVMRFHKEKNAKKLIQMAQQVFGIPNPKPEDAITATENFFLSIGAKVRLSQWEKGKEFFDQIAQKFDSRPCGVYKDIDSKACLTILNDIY
compound,measurement,setting,value
recombinant EhADH3B^b (alcohol dehydrogenase 3B of Entamoeba histolytica) (enzyme),stoichiometry N,[1],2
CC=O [acetaldehyde],Km,recEhADH3B^b,30.84 [95% CI 16.21–60.54] mM
C=O [formaldehyde],Km,recEhADH3B^b,63.7 [95% CI 25.3 to 267.4] mM
